Laboratory results published in article PMC11811631 (RSC Chemical Biology, 2025).

Molecular target: ScoE (Streptomyces coeruleorubidus, UniProt A0A3B6UEU3)
Assay: LC-MS of pyrazole product […] after tetrazine derivatization
Format: biochemical

| Structure (SMILES) | LC-MS of pyrazole product 8 after tetrazine derivatization (preferred chain length) | LC-MS of pyrazole product 8 after tetrazine derivatization (accepted chain length) |
| --- | --- | --- |
| CC(CC(=O)O)NCC(=O)O (centres unmarked) [6 (n = 1), methyl-6] | substrates that have a short alkyl chain, e.g., a methyl and propyl group |  |
| CCCC(CC(=O)O)NCC(=O)O (centres unmarked) [6 (n = 3), 6 with a propyl group] |  | substrates that have a short alkyl chain, e.g., a methyl and propyl group |
